Measurements as given in PubChem BioAssay (NCI).
“And” between values parts separate entries of the source, which are not always exact repeats. Identical values can stand only once.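 Dose response: 5 concentrations. Exposure: 48 h. Format: 96-well plates. Endpoint: linear interpolation; highest concentration if not reached. GI50: concentration for 50% inhibition of growth. The concentration for full growth arrest is given as TGI.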

Key:
Test in all cases: NCI anticancer screen, dose series, 48 h
[1] = system: 786-0 renal
[2] = system: A498 renal
[3] = system: ACHN renal
[4] = system: HCT-116 colon
[5] = system: HCT-15 colon
[6] = system: HOP-62 NSCLC
[7] = system: HOP-92 NSCLC
[8] = system: SF-539 CNS
[9] = system: SNB-19 CNS
[10] = system: U251 CNS

## COc1cc2nc3sc(C(=O)Nc4ccc(C(=O)OC(C)C)cc4)c(C(=O)Nc4ccc(Cl)cc4C)n3c(=O)c2cc1OC
[1]
  GI50: 5.17 µM
  TGI: 28 µM
[2]
  GI50: 4.69 µM
  TGI: 26.3 µM
[3]
  GI50: 23.8 µM
  TGI: > 100 µM
[4]
  GI50: 11.3 µM
  TGI: > 100 µM
[5]
  GI50: 17.3 µM
  TGI: > 100 µM
[6]
  GI50: 18.7 µM
  TGI: 52.2 µM
[7]
  GI50: 10.7 µM
  TGI: 30.6 µM
[8]
  GI50: 23.2 µM
  TGI: 80.8 µM
[9]
  GI50: 28 µM
  TGI: 95.3 µM
[10]
  GI50: 5.14 µM
  TGI: 18.4 µM

## C[n+]1c(/C=C\c2ccc(Cl)cc2)ccc2ccccc21
[1]
  GI50: > 100 µM
  TGI: > 100 µM
[2]
  GI50: 4.02 µM
  TGI: 91.3 µM
[3]
  GI50: 81.6 µM
  TGI: > 100 µM
[4]
  GI50: 12.6 µM
  TGI: > 100 µM
[5]
  GI50: 53.2 µM
  TGI: > 100 µM
[6]
  GI50: 29.2 µM
  TGI: > 100 µM
[8]
  GI50: 15.9 µM
  TGI: 92.2 µM
[9]
  GI50: 4.49 µM
  TGI: > 100 µM
[10]
  GI50: 3.7 µM
  TGI: > 100 µM

## Cc1ccc(NC(=O)CCC(CC(=O)C(C)(C)C)=NNC(=O)C(=O)NN)cc1C
[1]
  TGI: > 100 µM
[3]
  TGI: > 100 µM
[5]
  TGI: > 100 µM
[6]
  TGI: > 100 µM
[8]
  TGI: > 100 µM
[9]
  TGI: > 100 µM

## Cc1[nH]c2ccccc2c1C1Cc2ccccc2N1C(=O)/C=C/C=C/c1ccccc1 (stereo unspecified)
[1]
  TGI: > 100 µM
[2]
  TGI: > 100 µM
[3]
  TGI: > 100 µM
[4]
  TGI: > 100 µM
[5]
  TGI: > 100 µM
[6]
  TGI: > 100 µM
[7]
  TGI: > 100 µM
[8]
  TGI: > 100 µM
[9]
  TGI: > 100 µM
[10]
  TGI: > 100 µM

## COC(=O)/C=C1/CCC2[C@@H](C(=O)CC3[C@]2(C)CCC[C@@]3(C)C(=O)OC)C1C (stereo partly specified)
[1]
  TGI: 36 µM
[2]
  TGI: 34.4 µM
[3]
  TGI: 24.2 µM
[4]
  TGI: 19.1 µM
[5]
  TGI: 35.9 µM
[6]
  TGI: 39.5 µM
[7]
  TGI: 18.1 µM
[8]
  TGI: 28.5 µM
[9]
  TGI: 33.4 µM
[10]
  TGI: 29.5 µM

## Cc1cc(N2CCCCC2)nc(N(CCCNc2ccnc3cc(Cl)ccc23)Cc2ccco2)n1
[1]
  GI50: 1.61 µM
  TGI: 3.27 µM
[2]
  GI50: 2.66 µM
  TGI: 9.39 µM
[3]
  GI50: 3.3 µM
  TGI: 12 µM
[4]
  GI50: 1.15 µM
  TGI: 3.28 µM
[5]
  GI50: 1.62 µM
  TGI: 4.88 µM
[6]
  GI50: 1.38 µM
  TGI: 4.1 µM
[7]
  GI50: 1.38 µM
  TGI: 3.95 µM
[8]
  GI50: 1.61 µM
  TGI: 3.19 µM
[9]
  GI50: 2.93 µM
  TGI: 13.5 µM
[10]
  GI50: 1.8 µM
  TGI: 3.76 µM

## C[C@@H]1CN(C(=O)c2ccc(NC(=O)c3cc(O[C@H](C)c4c(Cl)ccc(F)c4Cl)c(N)nn3)cc2)C[C@H](C)N1
[1]
  GI50: 4.63 µM
  TGI: 15.7 µM
[2]
  GI50: 1 µM
  TGI: 5.33 µM
[4]
  GI50: 1.46 µM
  TGI: 10.7 µM
[5]
  GI50: 3.92 µM
  TGI: 15.1 µM
[6]
  GI50: 2.5 µM
  TGI: 14.4 µM
[7]
  GI50: 0.722 µM
  TGI: 5.18 µM
[8]
  GI50: 2.21 µM
  TGI: 5.07 µM
[9]
  GI50: 5.41 µM
  TGI: 18.1 µM
[10]
  GI50: 3.4 µM
  TGI: 12.9 µM

## CC(=O)OC(/C=C1/C=CC(=O)O1)COC(=O)c1ccccc1 (stereo unspecified)
[1]
  TGI: > 31.2 µM
[2]
  TGI: > 31.2 µM
[3]
  TGI: > 31.2 µM
[4]
  TGI: > 31.2 µM
[6]
  TGI: > 31.2 µM
[7]
  TGI: > 31.2 µM
[8]
  TGI: > 31.2 µM
[9]
  TGI: > 31.2 µM
[10]
  TGI: > 31.2 µM

## C/C(=C\C(C)COCc1ccccc1)[C@H](COCc1ccccc1)OCc1ccccc1 (stereo partly specified)
[1]
  TGI: > 100 µM
[2]
  TGI: > 100 µM
[3]
  TGI: > 100 µM
[4]
  TGI: > 100 µM
[5]
  TGI: > 100 µM
[6]
  TGI: > 100 µM
[7]
  TGI: > 100 µM
[8]
  TGI: > 100 µM
[9]
  TGI: > 100 µM
[10]
  TGI: > 100 µM

## CCOC(=O)/C(=C\c1ccc(O)c(OC)c1)C(=O)c1ccccc1
[1]
  TGI: 37.6 µM
[2]
  TGI: 39 µM
[3]
  TGI: 36 µM
[4]
  TGI: 28.7 µM
[5]
  TGI: 24.8 µM
[7]
  TGI: 70.7 µM
[8]
  TGI: 28 µM
[9]
  TGI: > 45.8 µM
[10]
  TGI: 36.2 µM

## C=C1C(=O)O[C@H]2[C@H]1CC/C(COC(=O)CCCCC(=O)OC/C1=C/CC[C@@]3(C)O[C@H]3[C@H]3OC(=O)C(=C)[C@@H]3CC1)=C\CC[C@@]1(C)O[C@@H]21
[1]
  GI50: 1.69 µM
  TGI: 3.86 µM
[2]
  GI50: 11 µM
  TGI: > 100 µM
[5]
  GI50: 1.73 µM
  TGI: 4.2 µM
[6]
  GI50: 3.15 µM
  TGI: 9.61 µM
[7]
  GI50: 1.64 µM
  TGI: 4.56 µM
[8]
  GI50: 2.01 µM
  TGI: 4.96 µM
[9]
  GI50: 5.99 µM
  TGI: > 100 µM
[10]
  GI50: 2.58 µM
  TGI: 8.91 µM

## COc1cc(/C=C2/C(=O)N(C(=O)OC(C)C)C(Cc3cc(OC)c(OC)c(C)c3OC)C(=O)N2Cc2ccccc2)c(OC)c(C)c1OC (stereo unspecified)
[1]
  TGI: > 100 µM
[2]
  TGI: > 100 µM
[3]
  TGI: > 100 µM
[4]
  TGI: > 100 µM
[6]
  TGI: > 100 µM
[7]
  TGI: > 100 µM
[8]
  TGI: > 100 µM
[10]
  TGI: > 100 µM

## CCCCCCCCCCCCCC(=O)O[C@H]1CC[C@H](NC(=O)[C@H](OC)[C@H](O)[C@@H](O)[C@H](O)/C=C/C(C)C)C(=O)NC1
[1]
  TGI: 0.928 µM
[2]
  TGI: 51.2 µM and > 100 µM
[4]
  TGI: 1.06 µM
[5]
  TGI: 21.1 µM and 90.7 µM
[6]
  GI50: < 0.001 µM
  TGI: 51.2 µM and 34 µM
[7]
  GI50: 0.554 µM
  TGI: 4.12 µM
[8]
  TGI: 22 µM and 17.6 µM
[9]
  TGI: 51.2 µM and 25.9 µM
[10]
  TGI: 18.6 µM and 11 µM

## O=c1/c(=C/c2cccc([N+](=O)[O-])c2)sc2nc3ccccc3n12
[1]
  TGI: > 100 µM
[2]
  TGI: > 100 µM
[3]
  TGI: > 100 µM
[4]
  TGI: > 100 µM
[5]
  TGI: > 100 µM
[6]
  TGI: > 100 µM

## Cn1ccnc1C(=O)/C=C/c1ccc(C(=O)Nc2ccc(Cl)cc2)cc1
[1]
  GI50: 0.761 µM
  TGI: 1.82 µM
[2]
  GI50: 0.661 µM
  TGI: > 33.3 µM
[3]
  GI50: 0.62 µM
  TGI: 1.24 µM
[4]
  GI50: 0.514 µM
  TGI: 1.08 µM
[5]
  GI50: 0.676 µM
  TGI: 3.12 µM
[6]
  GI50: 1.04 µM
  TGI: > 33.3 µM
[7]
  GI50: 1.14 µM
  TGI: 27 µM
[8]
  GI50: 0.626 µM
  TGI: 1.42 µM
[9]
  GI50: 0.987 µM
  TGI: > 33.3 µM

## CCOC12OC3=C(CC1CC1=C(CCC1=O)O2)C(=O)CC3 (stereo unspecified)
[1]
  TGI: > 100 µM
[2]
  TGI: > 100 µM
[4]
  TGI: > 100 µM
[5]
  TGI: > 100 µM
[6]
  TGI: > 100 µM
[7]
  TGI: > 100 µM
[8]
  TGI: > 100 µM
[9]
  TGI: > 100 µM
[10]
  TGI: > 100 µM

## Cn1nccc1Nc1nccc(-c2cc3c(s2)C(C)(C)N(CCN2CCOCC2)C3=O)n1
[1]
  GI50: 14.7 µM
  TGI: > 100 µM
[2]
  GI50: 0.659 µM
  TGI: 5.99 µM
[3]
  GI50: 9.53 µM
  TGI: > 100 µM
[4]
  GI50: 0.594 µM
  TGI: > 100 µM
[5]
  GI50: 16.9 µM
  TGI: > 100 µM
[6]
  GI50: 7.53 µM
  TGI: > 100 µM
[8]
  GI50: 27.9 µM
  TGI: > 100 µM
[9]
  GI50: 41.9 µM
  TGI: > 100 µM
[10]
  GI50: 33.7 µM
  TGI: > 100 µM
